According to patent US7645763B2, “8-[3-amino-piperidin-1-yl]-xanthines, their preparation and their use as pharmaceutical composition” (Boehringer Ingelheim Pharma GmbH & Co. KG, priority 2004, dated 2010):
pIC50: −log10 of the molar value.

Key:
[1] = target: T1, DPP-IV (Homo sapiens, UniProt P27487); assay: DPP-IV assay with Caco-2 cell extract as DPP IV source; assay type: biochemical; settings: extract of human colon carcinoma cell line Caco-2 as DPP IV source; AFC substrate 100 μM; 60 minutes at ambient temperature; 11-point curves; read-out: DPP IV inhibition IC50
T1 construct: an extract of the human colon carcinoma cell line Caco-2 is used as the DPP IV source; endogenous in cells; host or cells: Caco-2 (human colon carcinoma), differentiated to induce DPP-IV expression; Nonidet-P40 solubilized extract
T1 sequence (P27487 whole entry): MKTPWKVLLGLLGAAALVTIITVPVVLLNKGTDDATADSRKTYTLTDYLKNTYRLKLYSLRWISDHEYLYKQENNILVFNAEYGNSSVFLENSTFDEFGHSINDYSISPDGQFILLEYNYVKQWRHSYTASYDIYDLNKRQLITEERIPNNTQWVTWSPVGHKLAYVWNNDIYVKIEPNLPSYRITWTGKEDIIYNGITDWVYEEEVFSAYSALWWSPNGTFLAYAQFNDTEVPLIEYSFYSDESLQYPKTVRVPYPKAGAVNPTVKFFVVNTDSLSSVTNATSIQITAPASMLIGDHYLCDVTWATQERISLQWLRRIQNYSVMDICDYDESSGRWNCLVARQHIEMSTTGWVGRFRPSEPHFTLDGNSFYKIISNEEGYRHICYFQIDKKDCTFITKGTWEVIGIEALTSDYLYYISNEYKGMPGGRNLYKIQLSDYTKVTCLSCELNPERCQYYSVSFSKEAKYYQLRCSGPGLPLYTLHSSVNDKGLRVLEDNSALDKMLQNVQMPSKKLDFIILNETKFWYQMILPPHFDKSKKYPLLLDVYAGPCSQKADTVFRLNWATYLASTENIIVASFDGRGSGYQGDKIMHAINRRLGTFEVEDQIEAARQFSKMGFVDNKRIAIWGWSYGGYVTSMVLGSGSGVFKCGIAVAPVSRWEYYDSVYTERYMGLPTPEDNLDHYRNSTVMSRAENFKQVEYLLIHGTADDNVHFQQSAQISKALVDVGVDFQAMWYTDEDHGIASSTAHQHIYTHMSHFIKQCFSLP
Description: The differentiation of the cells in order to induce the DPP-IV expression was carried out in accordance with the description by Reiher et al. in an article entitled “Increased expression of intestinal cell line Caco-2” that appeared in Proc. Natl. Acad. Sci. Vol. 90, pp. 5757-5761 (1993). The cell extract was obtained from cells solubilized in a buffer (10 mM Tris HCl, 0.15 M NaCl, 0.04 t.i.u. aprotinin, 0.5% Nonidet-P40, pH 8.0) by centrifugation at 35,000 g for 30 minutes at 4° C. (to remove cell debris).
The DPP-IV assay was carried out as follows:
50 μl of substrate solution (AFC; AFC is amido-4-trifluoromethylcoumarin), final concentration 100 μM, was placed in black microtitre plates. 20 μl of assay buffer (final concentrations 50 mM Tris HCl pH 7.8, 50 mM NaCl, 1% DMSO) was pipetted therein. The reaction was started by the addition of 30 μl of solubilized Caco-2 protein (final concentration 0.14 μg of protein per well). The test substances under investigation were typically added prediluted to 20 μl, while the volume of assay buffer was then reduced accordingly. The reaction was carried out at ambient temperature, the incubation period was 60 minutes. Then the fluorescence was measured in a Victor 1420 Multilabel Counter, with the excitation wavelength at 405 nm and the emission wavelength at 535 nm. Dummy values (corresponding to 0% activity) were obtained in mixtures with no Caco-2 protein (volume replaced by assay buffer), control values (corresponding to 100% activity) were obtained in mixtures without any added substance. The potency of the test substances in question, expressed as IC50 values, were calculated from dosage/activity curves consisting of 11 measured points in each case.

[2] = Tolerability in rats after oral administration; assay type: in vivo; settings: oral administration of 10 mg/kg

Molecule CC#CCn1c(N2CCC[C@@H](N)C2)nc2c1c(=O)n(Cc1nc(C)c3ccccc3n1)c(=O)n2C1CC1 [1(1), 1-[(4-methyl-quinazolin-2-yl)methyl]-3-cyclopropyl-7-(2-butyn-1-yl)-8-((R)-3-amino-piperidin-1-yl)-xanthine] has a pIC50 [1] of 8.57.

In the case of CC#CCn1c(N2CCC[C@@H](N)C2)nc2c1c(=O)n(CC(=O)c1cccc(OC)c1)c(=O)n2-c1ccccc1 [1(10), 1-[2-(3-methoxy-phenyl)-2-oxo-ethyl]-3-phenyl-7-(2-butyn-1-yl)-8-((R)-3-amino-piperidin-1-yl)-xanthine], the pIC50 [1] was 8.09.

CC#CCn1c(N2CCC[C@@H](N)C2)nc2c1c(=O)n(Cc1ccc3ncccc3n1)c(=O)n2-c1ccccc1 [1(13), 1-[([1,5]naphthyridin-2-yl)methyl]-3-phenyl-7-(2-butyn-1-yl)-8-((R)-3-amino-piperidin-1-yl)-xanthine] showed a pIC50 [1] of 8.40.

For CC#CCn1c(N2CCC[C@@H](N)C2)nc2c1c(=O)n(Cc1nc(C)c3ccccc3n1)c(=O)n2-c1ccccc1 [Example 1(8), 1-[(4-methyl-quinazolin-2-yl)methyl]-3-phenyl-7-(2-butyn-1-yl)-8-((R)-3-amino-piperidin-1-yl)-xanthine], the pIC50 [1] was 8.31 and the “toxic side effects / tolerability” value [2] was “no toxic side effects could be detected”.

In the case of CC#CCn1c(N2CCC[C@@H](N)C2)nc2c1c(=O)n(CC(=O)c1cccc3oc(=O)n(C)c13)c(=O)n2C1CC1 [Example 1, 1-[2-(3-Methyl-2-oxo-2,3-dihydro-benzoxazol-4-yl)-2-oxo-ethyl]-3-cyclopropyl-7-(2-butyn-1-yl)-8-((R)-3-amino-piperidin-1-yl)-xanthine], the pIC50 [1] was 8.44.
